From US20260048051A1, “TREATMENT OF INFLAMMATORY BOWEL DISEASE” (Atomwise Inc., priority 2024, published 2026)
Entries after “also recorded” stand apart in the source; their conditions may differ. Where two headings read alike, the source gives them in different places.

What was measured:
IL-6 induced pSTAT3 = IL-6 induced pSTAT3 assay in TF-1 cells; format: cell-based; conditions: Homo sapiens, read-out: Cellular selectivity (IL-6/pSTAT3)
Procedure: The following example describes the IL-6 induced pSTAT3 assay used to determine the cellular selectivity (IL-6/pSTAT3) of the TYK2 inhibitors.
TF-1 (ATCC®, CRL-2003™) cells were cultured in RPMI 1640 Medium, with GlutaMAX™ Supplement, HEPES for Cell Culture (Life Technologies, 72400047), 10% Fetal Bovine Serum (Life Technologies, 26400044), 2 ng/mL human recombinant GM-CSF (Life Technologies, PHC2013), 1 mM Sodium pyruvate (Life Technologies, 11360039), 1% MEM NEAA (Life Technologies, 11140-035), 1% Penicillin/Streptomycin (Life Technologies, 15140-122).
TF-1 (70×10^6) cells were starved overnight in T150 flasks (Opti-MEM™ I Reduced Serum Medium, no phenol red (Life Technologies, 11058-021), 1 mM Na pyruvate (Life Technologies, 11360039), 1% MEM NEAA (Life Technologies, 11140-035), and 1% Penicillin/Streptomycin (Life Technologies, 15140-122)) then seeded into 96-well TPP plates (150 000 cell/well) and incubated with test compounds (Final Concentration [nM]10000-0.05) for 30 minutes at 37° C. […] Stimulation was terminated by addition of lysis buffer (MSD K150SVD) and pSTAT3 detection was measured with Phospho-STAT3 (Tyr705) Kit MSD K150SVD)) according to manufacturer's instruction. Briefly, cell lysates were added to pre-blocked plates, sealed, and shake for 1 hour at room temperature. Plates were then washed and incubated with detection antibody for 1 hour at room temperature. After washing, Read Buffer was added, and plates were read on MSD instrument (Model 1300 MSD Quickplex SQ120).

IFNα/pSTAT5 = test: Whole blood potency (IFNα/pSTAT5), human; format: cell-based; conditions: CD4+ T cells, read-out: Cellular Whole Blood Potency IC50 (IFNα/pSTAT5), Human
Procedure: Heparinized human whole blood (5 different donors) was acquired from the Stanford Blood Center and used fresh for each experiment. Whole blood was plated (90 μl per well) into a 96-well assay plate immediately prior to initiation of the assay.
Test compounds were diluted serially (3-fold) in DMSO to generate a series of 10 concentrations (at 200× final assay concentrations). […] DMSO dilutions were diluted 10-fold in PBS to generate 20× final assay concentrations.
Pre-incubation of compounds and whole blood was initiated by adding 5 μl of the compound dilutions to the assay plates and incubated for 30 min at 37° C. Blood was then stimulated by the addition of IFN-α (5 μl of 200 ng/ml) (Miltenyi #130-093-873) followed by incubation at 37° C. for 15 min. Assays were terminated by the addition of Lyse/Fix (BD Biosciences #558049) (60 μl treated blood+1 ml Lyse/Fix) and incubated for 10 min. Cells were diluted 1:1 with Wash Buffer (PBS+0.3% BSA) and centrifuged to pellet white blood cells. Fixed cells were washed once with Wash Buffer and the pelleted cell plate was frozen at −80° C.
Cells were thawed and washed once with Wash Buffer prior to the addition of the α-CD3-Blue520 antibody (2 μg/ml final concentration; Biolegend #300481) and incubated for 30 min. Cells were washed twice in Wash Buffer followed by permeabilization in 100% cold methanol for 15 min. Cells were washed three times in Wash Buffer prior to the addition of the α-CD4-APC antibody ([…] final concentration; Biolegend #300514) and the α-pSTAT5-PE antibody (0.67 μg/ml final concentration; Biolegend #936904) and incubated for 90 min. Cells were washed twice in Wash Buffer and resuspended in 90 μl Wash Buffer prior to running on a LSRII flow cytometer (BD Biosciences, San Jose, CA). Total T cells (CD3+) and CD4+ cells were gated, and the Mean Fluorescence Intensity (MFI) was determined from the PE channel to quantify pSTAT5 signal.
The pSTAT5 MFI in the CD4+ gate was used to calculated Activity (% Control):
Data were then analyzed by non-linear regression to determine inhibitory potencies […] using the following equation in Collaborative Drug Discovery (Burlingame, CA): […]
where X: log concentration in Molar; Y: Activity (% Control); Top: curve top plateau; Bottom: curve bottom plateau, fixed range from −20-20%; Hill Slope: unconstrained. Potency data are reported as pIC50 or pIC90 values ±SD. IC90 values are defined from the fitted IC50 values: […]. FIG. 5A.
Exemplary compounds of the invention, compounds 1 and 2 were compared in this assay.

[1] = GLP in vivo assay of genotoxicity

Structure (SMILES) | IC50 (IL-6 induced pSTAT3) [nM] | IC50 (IFNα/pSTAT5) [nM] | IC50 (IFNα/pSTAT5; Homo sapiens, CD4+ T) [nM] | genotoxicity [1] | genotoxicity ([1]; listed as compound 2)
C[C@@H](c1ccc(Nc2cc(Nc3ncccc3S(C)(=O)=O)ncn2)nc1)N1CC2(COC2)C1 [Compound 1, (S)—N^4-(5-(1-(2-oxa-6-azaspiro[3.3]heptan-6-yl)ethyl)pyridin-2-yl)-N^6-(3-(methylsulfonyl)pyridin-2-yl)pyrimidine-4,6-diamine] | > 10000 | 29.1 | ~15.8 | – | –
C[C@@H](c1ccc(Nc2cc(Nc3ncc(F)cc3S(C)(=O)=O)ncn2)nc1)N1CC2(COC2)C1 [Compound 2, (S)—N^4-(5-(1-(2-oxa-6-azaspiro[3.3]heptan-6-yl)ethyl)pyridin-2-yl)-N^6-(5-fluoro-3-(methylsulfonyl)pyridin-2-yl)pyrimidine-4,6-diamine] | > 10000 | 15.8 | ~29 | substantially no genotoxicity; also recorded: virtually no genotoxicity | substantially non-genotoxic
